Here are results for one compound from ChEMBL document CHEMBL5728227, “Substituted pyrazole derivatives as selective CDK12/13 inhibitors” (2021).

Molecules are shown by their SMILES.

The target of the test is Cyclin-dependent kinase 7 (Homo sapiens, UniProt P50613). As to the kind of experiment: Biochemical Assay for CDK7: The inhibitory activity of the test compounds was assessed by the LANCE TR-FRET assay, which detects the ATP-dependent phosphorylation of an ULight-myelin basic protein (MBP) substrate peptide (100 nM) by CDK7 (10 nM). Briefly, the enzyme reaction was run in reaction buffer (20 mM HEPES (pH 7.5), 10 mM MgCl2, 0.01% Triton x, 100 μM Sodium Orthovanadate, 1 mM DTT). The assay was performed in 384-well plate. The end concentration of the ATP substrate was 1 mM/100 μM, and that of the ULight-MBP substrate peptide was 100 nM, and of CDK7 was 10 nM. Pre-incubation of the compound and enzyme was performed for 60 min at room temperature. After 60 min incubation at room temperature, the reaction was terminated by the addition of 40 mM EDTA and 1 nM Eu-labeled anti-phospho-MBP-binding protein antibody in the buffer. Time-resolved fluorescence (excitation, 320 nm; emission donor, 615 nm; emission acceptor, 665 nm) was monitored by using 2030 multilabel reader Victor5 (PerkinElmer). The readout was calculated as (acceptor counts/donor counts)×1000. The IC50 values were derived by fitting a sigmoidal dose-response curve to a plot of assay readout over inhibitor concentration. All fits were computed with the program Prism 5.03 (Graph Pad Software, San Diego, Calif.).
Cyclin-dependent kinase 7, sequence (P50613 whole entry): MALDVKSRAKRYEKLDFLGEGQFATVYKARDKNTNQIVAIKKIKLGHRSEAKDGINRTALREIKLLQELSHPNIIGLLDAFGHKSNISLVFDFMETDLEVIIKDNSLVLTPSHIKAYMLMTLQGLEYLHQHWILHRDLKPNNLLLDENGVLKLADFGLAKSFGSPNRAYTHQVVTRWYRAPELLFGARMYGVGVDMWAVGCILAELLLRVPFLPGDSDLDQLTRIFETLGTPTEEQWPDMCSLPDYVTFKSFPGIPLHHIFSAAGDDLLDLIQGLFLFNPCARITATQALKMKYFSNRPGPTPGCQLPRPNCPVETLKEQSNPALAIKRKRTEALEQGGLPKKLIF

For `C=CC(=O)N1CCC=C(c2ccc(CC(=O)Nc3cc(C4CC4)[nH]n3)cn2)C1`, the IC50 was 1.73 µM.
